Experimental data reported in US8633005B2, “Isocyclomaltooligosaccharide(s), isocyclomaltooligosaccharide-forming enzyme, their preparation and uses” (Hayashibara Co., Ltd., priority 2004, dated 2014).

Columns and labels:
[1] = Amino-carbonyl reaction with polypeptone; format: physicochemical; settings: with 5% (w/v) polypeptone, 120° C., blank subtracted
Protocol: ICG5 used in Experiment 15 and commercially available polypeptone, commercialized by Nihon Pharmaceutical Co., Ltd., Tokyo, Japan, were dissolved in deionized water to make into an aqueous solution containing […] and 5% (w/v) of polypeptone. As a control, an aqueous solution containing α-CD and polypeptone was prepared in the same manner using α-CD in place of ICG5. Four milliliters each of the solution was put in a glass tube, sealed and then heated at 120° C. for 30, 60, or 90 min. After cooling the solutions in ambient temperature, the degrees of coloring of the solutions were measured to estimate the degree of amino-carbonyl reaction. As a blank test, a solution containing polypeptone only was heated in the same manner. The degree of coloring was defined as an absorbance at 480 nm using a 1 cm-cell after subtracting the absorbance of the blank test.

salivary α-amylase = biological target: T1, salivary α-amylase (Homo sapiens, UniProt P0DUB6)
T1 sequence (P0DUB6 16-511): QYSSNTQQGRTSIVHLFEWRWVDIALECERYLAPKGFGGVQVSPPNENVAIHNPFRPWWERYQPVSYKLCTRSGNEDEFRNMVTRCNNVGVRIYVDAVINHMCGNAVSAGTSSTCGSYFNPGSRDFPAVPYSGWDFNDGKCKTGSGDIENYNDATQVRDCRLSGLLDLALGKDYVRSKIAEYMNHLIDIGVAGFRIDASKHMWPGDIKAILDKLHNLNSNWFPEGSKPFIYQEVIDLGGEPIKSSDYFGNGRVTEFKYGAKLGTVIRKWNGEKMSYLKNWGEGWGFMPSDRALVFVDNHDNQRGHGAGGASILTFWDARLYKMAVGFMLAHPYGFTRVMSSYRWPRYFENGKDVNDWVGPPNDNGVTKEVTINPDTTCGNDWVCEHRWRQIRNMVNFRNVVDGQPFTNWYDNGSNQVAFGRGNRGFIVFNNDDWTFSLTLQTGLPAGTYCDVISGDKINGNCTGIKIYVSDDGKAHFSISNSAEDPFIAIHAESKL
Description: (§2) 43, 23-29 (1990), the digestibility of ICM by salivary α-amylase, artificial gastric juice, pancreas amylase, and small intestinal enzymes were investigated using ICG5, used in Experiment 15. […] In Table 18, the digestion (%) means a value calculated by the formula: Digestion (%)=(The amount of reducing saccharides/The amount of the total saccharides)×100 , in respective reaction described above.

[2] = pH stability of ICM (ICG5 in buffers pH 2 to 10 heated at 100° C. for 24 hours); format: physicochemical; settings: for Degree of coloring / Purity: 4% (w/v), 100° C. for 24 hours
Protocol: (§1) ICG5, prepared from soluble starch by the method in Experiment 11 and purified to give a purity of 100% by the method in Experiment 1, was used as material. An aqueous ICG5 solution with a concentration of 5% (w/v) was prepared by dissolving ICG5 in deionized water. Then, 8 ml each of the resulting solution was pored into a glass tube, sealed closely, and then heated at 120° C. for 30 to 90 min. After cooling the solution, the degree of coloring of the solution was measured. Further, the purity of ICG5 in the solution was measured by HPLC. The degree of coloring was defined as an absorbance at 480 nm using a 1 cm-cell.
ICG5, used in Experiment 15, was dissolved in various buffers to make into nine kinds of aqueous solutions containing 4% (w/v) of ICG5, adjusted to pH 2 to 10, as shown in Table 14. Eight milliliters of each solution was put in a glass tube, sealed and then heated at 100° C. for 24 hours. After cooling the solution, the degree of coloring and the purity of ICG5 of each solution were measured in the same manner in Experiment 15.

[3] = Amino-carbonyl reaction with glycine; format: physicochemical; settings: 5% (w/v) saccharide + 1% (w/v) glycine, pH 7.0, 120° C., blank subtracted
Protocol: ICG5, used in Experiment 15 and commercially available super high-grade glycine were dissolved in deionized water, and then admixed with phosphate buffer to make into an aqueous ICG5 solution containing 5% (w/v) of ICG5 and 1% (w/v) glycine, adjusted to pH 7.0. As a control, an aqueous α-cyclodextrin (α-CD) solution containing α-CD and glycine was prepared in the same manner using α-CD in place of ICG5. Four milliliters each of the solution was put in a glass tube, sealed and then heated at 120° C. for 30, 60, or 90 min. After cooling the solutions in ambient temperature, the degrees of coloring of the solutions were measured to estimate the degree of amino-carbonyl reaction. As a blank test, a solution containing glycine only was heated in the same manner. The degree of coloring was defined as an absorbance at 480 nm using a 1 cm-cell after subtracting the absorbance of the blank test.

[4] = Thermal stability of ICM (ICG5 aqueous solution heated at 120° C.); format: physicochemical; settings: for Degree of coloring / Purity: 5% (w/v) aqueous solution, 120° C.; for Purity: HPLC
Protocol: as §1

[5] = Reducing power by the Somogyi-Nelson method; format: physicochemical
Description: It was concluded that Saccharides I and II were substantially non-reducing saccharides.

Description for small intestinal enzymes: as §2

OCC1OC2OC3C(CO)OC(OC4C(CO)OC(OC5C(CO)OC(OCC6OC(OC1C(O)C2O)C(O)C(O)C6O)C(O)C5O)C(O)C4O)C(O)C3O [ICG5, cyclo{→6)-α-D-glucopyranosyl-(1→4)-α-D-glucopyranosyl-(1→4)-α-D-glucopyranosyl-(1→4)-.α-D-glucopyranosyl-(1→4)α-D-glucopyranosyl-(1→}]
Digestion (small intestinal enzymes): 0.2%
Degree of coloring ([1]; heating time 0 min): 0.00 A480 nm
Degree of coloring ([1]; heating time 30 min): 0.02 A480 nm
Degree of coloring ([1]; heating time 60 min): 0.02 A480 nm
Degree of coloring ([1]; heating time 90 min): 0.02 A480 nm
Digestion (salivary α-amylase): 0%
Hydrolysis ([2]; pH 2, 100° C. for 24 hours): completely hydrolyzed
Degree of coloring ([2]; pH 2.0, Acetate buffer): 0.00 A480 nm
Purity ([2]; pH 2.0, Acetate buffer): 0%
Hydrolysis ([2]; pH 3, 100° C. for 24 hours): ≥ 50
Degree of coloring ([2]; pH 3.0, Acetate buffer): 0.00 A480 nm
Purity ([2]; pH 3.0, Acetate buffer): 34.9%
Hydrolysis ([2]; pH 4, 100° C. for 24 hours): slightly hydrolyzed
Degree of coloring ([2]; pH 4.0, Acetate buffer): 0.00 A480 nm
Purity ([2]; pH 4.0, Acetate buffer): 89.9%
Degree of coloring ([2]; pH 5.0, Acetate buffer): 0.00 A480 nm
Purity ([2]; pH 5.0, Acetate buffer): 99.4%
Degree of coloring ([2]; pH 6.0, Acetate buffer): 0.00 A480 nm
Purity ([2]; pH 6.0, Acetate buffer): 100%
Degree of coloring ([2]; pH 7.0, Borate buffer): 0.00 A480 nm
Purity ([2]; pH 7.0, Borate buffer): 100%
Degree of coloring ([2]; pH 8.0, Ammonium buffer): 0.00 A480 nm
Purity ([2]; pH 8.0, Ammonium buffer): 100%
Degree of coloring ([2]; pH 9.0, Ammonium buffer): 0.01 A480 nm
Purity ([2]; pH 9.0, Ammonium buffer): 100%
Degree of coloring ([2]; pH 10.0, Ammonium buffer): 0.01 A480 nm
Purity ([2]; pH 10.0, Ammonium buffer): 99.6%
Hydrolysis ([2]; pH range of 5 to 10, 100° C. for 24 hours): substantially not hydrolyzed
Degree of coloring ([3]; heating time 0 min): 0.00 A480 nm
Degree of coloring ([3]; heating time 30 min): 0.00 A480 nm
Degree of coloring ([3]; heating time 60 min): 0.00 A480 nm
Degree of coloring ([3]; heating time 90 min): 0.00 A480 nm
Degree of coloring ([4]; heating time 0 min): 0.00 A480 nm
Purity ([4]; heating time 0 min): 100%
Degree of coloring ([4]; heating time 30 min): 0.00 A480 nm
Purity ([4]; heating time 30 min): 100%
Degree of coloring ([4]; heating time 60 min): 0.00 A480 nm
Purity ([4]; heating time 60 min): 100%
Degree of coloring ([4]; heating time 90 min): 0.01 A480 nm
Purity ([4]; heating time 90 min): 100%
Thermal stability ([4]; aqueous solution heated to 120° C.): stable under the heating condition
Reducing power [5]: less than the measurable limit
